Measurements published in patent US20260240159A1, “HERBICIDAL COMPOSITIONS” (SYNGENTA CROP PROTECTION AG, priority 2023, published 2026).

How the values were obtained:
Assay in all cases: Post-emergence glasshouse herbicidal efficacy, percentage damage to plant
Format in all cases: in vivo
Settings in all cases: after 14 days
[1] = test system: Setaria faberi (SETFA)
Text: (§1) When active ingredients are combined, the activity to be expected (E) for any given active ingredient combination obeys the so-called Colby Formula and can be calculated as follows (Colby, S. R., Calculating synergistic and antagonistic responses of herbicide combination, Weeds, Vol. 15, pages 20-22; 1967): • ppm=milligrams of active ingredient (a.i.) per liter • X=% action by first active ingredient using p ppm of the active ingredient • Y=% action by second active ingredient sing q ppm of the active ingredient.
(§2) According to Colby, the expected action of active ingredients A+B using p+q ppm of active ingredient is represented by the following formula: […]
(§3) If the action actually observed (O) is greater than the expected action E then the action of the combination is super-additive, i.e. there is a synergistic effect. In mathematical terms, synergism corresponds to a positive value for the difference of (O-E). In the case of purely complementary addition of activities (expected activity), said difference (O-E) is zero. A negative value of said difference (O-E) signals a loss of activity compared to the expected activity.
(§4) Biological Efficacy Tests Seeds of a variety of test species are sown in standard soil in pots (Ipomoea hederacea (IPHOE), Alopecurus myosuroides (ALOMY), Lolium perenne (LOLPE), Echinochloa crus-galli (ECHCG), and Setaria faberi (SETFA)), and cultivated under controlled conditions in a glasshouse (at 24/16° C., day/night; 14 hours light; 65% humidity), the plants are sprayed with an aqueous spray solution derived from the dissolution of the test compound or composition in acetone and IF50 (11.12% Emulsogen EL360 TM+44.44% N-methylpyrrolidone+44.44% Dowanol DPM glycol ether) which was then diluted to the required concentration using 0.2% Genapol X080 (CAS No. 9043-30-5) in water as the diluent. Test compounds or compositions are applied at the rates stated. The test plants are then grown in a glasshouse under controlled conditions in a glasshouse (at 24/16° C., day/night; 14 hours light; 65% humidity) and watered twice daily. After 14 days, the test is evaluated for the percentage damage caused to the plant (100=total damage to plant; 0=no damage to plant), and the result are shown below in tables B1 to B5.

[2] = test system: Alopecurus myosuroides (ALOMY)
Text: as §1, §2, §3, §4

[3] = test system: Ipomoea hederacea (IPOHE)
Text: as §1, §2, §3, §4

[4] = test system: Lolium perenne (LOLPE)
Text: as §1, §2, §3, §4

[5] = test system: Echinochloa crus-galli (ECHCG)
Text: as §1, §2, §3, §4

SMILES: CCOC(=O)C1(C)CC(c2cc(-n3c(=O)cc(C(F)(F)F)n(C)c3=O)c(F)cc2Cl)=NO1 (centres unmarked) [(Ia)]
- inhibition at 1.875 g/ha ([1]; Setaria faberi, 336 h, (Ia) 1.875 g/Ha alone, read-out: Observed Activity (%)): 55%
- inhibition at 3.75 g/ha ([1]; Setaria faberi, 336 h, (Ia) 3.75 g/Ha alone, read-out: Observed Activity (%)): 67.5%
- inhibition at 1.875 g/ha ([2]; Alopecurus myosuroides, 336 h, (Ia) 1.875 g/Ha alone, read-out: Observed Activity (%)): 10%
- inhibition at 3.75 g/ha ([2]; Alopecurus myosuroides, 336 h, (Ia) 3.75 g/Ha alone, read-out: Observed Activity (%)): 27.5%
- inhibition at 7.5 g/ha ([2]; Alopecurus myosuroides, 336 h, (Ia) 7.5 g/Ha alone, read-out: Observed Activity (%)): 42.5%
- inhibition at 15 g/ha ([2]; Alopecurus myosuroides, 336 h, (Ia) 15 g/Ha alone, read-out: Observed Activity (%)): 60%
- inhibition at 0.9375 g/ha ([3]; Ipomoea hederacea, 336 h, (Ia) 0.9375 g/Ha alone, read-out: Observed Activity (%)): 84.8%
- inhibition at 1.875 g/ha ([4]; Lolium perenne, 336 h, (Ia) 1.875 g/Ha alone, read-out: Observed Activity (%)): 0%
- inhibition at 3.75 g/ha ([4]; Lolium perenne, 336 h, (Ia) 3.75 g/Ha alone, read-out: Observed Activity (%)): 12.5%
- inhibition at 7.5 g/ha ([4]; Lolium perenne, 336 h, (Ia) 7.5 g/Ha alone, read-out: Observed Activity (%)): 42.5%
- inhibition at 15 g/ha ([4]; Lolium perenne, 336 h, (Ia) 15 g/Ha alone, read-out: Observed Activity (%)): 50%
- inhibition at 1.875 g/ha ([5]; Echinochloa crus-galli, 336 h, (Ia) 1.875 g/Ha alone, read-out: Observed Activity (%)): 15%
- inhibition at 3.75 g/ha ([5]; Echinochloa crus-galli, 336 h, (Ia) 3.75 g/Ha alone, read-out: Observed Activity (%)): 37.5%
- inhibition at 7.5 g/ha ([5]; Echinochloa crus-galli, 336 h, (Ia) 7.5 g/Ha alone, read-out: Observed Activity (%)): 99%

SMILES: CCc1cccc(C)c1N(C(=O)CCl)[C@@H](C)COC [S-metolachlor]
- Observed Activity (%) ([1]; S-metolachlor 37.5 g/Ha alone): 72.5%
- Observed Activity (%) ([1]; S-metolachlor 75 g/Ha alone): 82.5%
- Observed Activity (%) ([1]; S-metolachlor 150 g/Ha alone): 85.0%
- Observed Activity (%) ([2]; S-metolachlor 18.75 g/Ha alone): 0.0%
- Observed Activity (%) ([2]; S-metolachlor 37.5 g/Ha alone): 10.0%
- Observed Activity (%) ([2]; S-metolachlor 75 g/Ha alone): 0.0%
- Observed Activity (%) ([2]; S-metolachlor 150 g/Ha alone): 27.5%
- Observed Activity (%) ([2]; S-metolachlor 300 g/Ha alone): 45.0%
- Observed Activity (%) ([3]; S-metolachlor 62.5 g/Ha alone): 5.0%
- Observed Activity (%) ([3]; S-metolachlor 125 g/Ha alone): 7.5%
- Observed Activity (%) ([4]; S-metolachlor 18.75 g/Ha alone): 45.0%
- Observed Activity (%) ([4]; S-metolachlor 37.5 g/Ha alone): 60.0%
- Observed Activity (%) ([4]; S-metolachlor 75 g/Ha alone): 70.0%
- Observed Activity (%) ([4]; S-metolachlor 150 g/Ha alone): 67.5%
- Observed Activity (%) ([4]; S-metolachlor 300 g/Ha alone): 80.0%
- Observed Activity (%) ([5]; S-metolachlor 18.75 g/Ha alone): 75.0%
- Observed Activity (%) ([5]; S-metolachlor 37.5 g/Ha alone): 85.0%
- Observed Activity (%) ([5]; S-metolachlor 75 g/Ha alone): 85.0%
